Data: ChEMBL document CHEMBL1153245, “A profile of the in vitro anti-tumor activity of imidazolium-based ionic liquids” (2010)

Assays:
Assay type in all cases: functional
[1] = test system: NCI-H522; test: Anticancer activity against human NCI-H522 cells assessed cell growth at 10 uM after 48 hrs by sulforhodamine B assay relative to control
[2] = test system: OVCAR-5; test: Anticancer activity against human OVCAR5 cells assessed cell growth at 10 uM after 48 hrs by sulforhodamine B assay relative to control
[3] = test system: SF-539; test: Anticancer activity against human SF539 cells assessed cell growth at 10 uM after 48 hrs by sulforhodamine B assay relative to control
[4] = test system: DU-145; test: Anticancer activity against human DU145 cells assessed cell growth at 10 uM after 48 hrs by sulforhodamine B assay relative to control
[5] = test system: TK-10; test: Anticancer activity against human TK10 cells assessed cell growth at 10 uM after 48 hrs by sulforhodamine B assay relative to control
[6] = test system: T47D; test: Anticancer activity against human T47D cells assessed cell growth at 10 uM after 48 hrs by sulforhodamine B assay relative to control
[7] = test system: SW-620; test: Anticancer activity against human SW620 cells assessed cell growth at 10 uM after 48 hrs by sulforhodamine B assay relative to control
[8] = test system: UACC-257; test: Anticancer activity against human UACC257 cells assessed cell growth at 10 uM after 48 hrs by sulforhodamine B assay relative to control
[9] = test system: SNB-19; test: Anticancer activity against human SNB19 cells assessed cell growth at 10 uM after 48 hrs by sulforhodamine B assay relative to control
[10] = test system: LOX IMVI; test: Anticancer activity against human LOXIMVI cells assessed cell growth at 10 uM after 48 hrs by sulforhodamine B assay relative to control
[11] = test system: SK-MEL-2; test: Anticancer activity against human SK-MEL-2 cells assessed cell growth at 10 uM after 48 hrs by sulforhodamine B assay relative to control
[12] = test system: MDA-MB-231; test: Anticancer activity against human MDA-MB-231 cells assessed cell growth at 10 uM after 48 hrs by sulforhodamine B assay relative to control
[13] = test system: CCRF-CEM; test: Anticancer activity against human CCRF-CEM cells assessed cell growth at 10 uM after 48 hrs by sulforhodamine B assay relative to control
[14] = test system: KM12; test: Anticancer activity against human KM12 cells assessed cell growth at 10 uM after 48 hrs by sulforhodamine B assay relative to control
[15] = test system: MCF7; test: Anticancer activity against human MCF7 cells assessed cell growth at 10 uM after 48 hrs by sulforhodamine B assay relative to control
[16] = test system: NCI-H460; test: Anticancer activity against human NCI-H460 cells assessed cell growth at 10 uM after 48 hrs by sulforhodamine B assay relative to control
[17] = test system: OVCAR-4; test: Anticancer activity against human OVCAR4 cells assessed cell growth at 10 uM after 48 hrs by sulforhodamine B assay relative to control
[18] = test system: OVCAR-8; test: Anticancer activity against human OVCAR8 cells assessed cell growth at 10 uM after 48 hrs by sulforhodamine B assay relative to control
[19] = test system: SF-268; test: Anticancer activity against human SF268 cells assessed cell growth at 10 uM after 48 hrs by sulforhodamine B assay relative to control
[20] = test system: HOP-92; test: Anticancer activity against human HOP92 cells assessed cell growth at 10 uM after 48 hrs by sulforhodamine B assay relative to control
[21] = Anticancer activity against human RPMI8266 cells assessed cell growth at 10 uM after 48 hrs by sulforhodamine B assay relative to control
[22] = test system: IGROV-1; test: Anticancer activity against human IGROV1 cells assessed cell growth at 10 uM after 48 hrs by sulforhodamine B assay relative to control
[23] = test system: HOP-62; test: Anticancer activity against human HOP62 cells assessed cell growth at 10 uM after 48 hrs by sulforhodamine B assay relative to control
[24] = test system: ACHN; test: Anticancer activity against human ACHN cells assessed cell growth at 10 uM after 48 hrs by sulforhodamine B assay relative to control
[25] = test system: RXF 393; test: Anticancer activity against human RXF393 cells assessed cell growth at 10 uM after 48 hrs by sulforhodamine B assay relative to control
[26] = test system: CAKI-1; test: Anticancer activity against human Caki1 cells assessed cell growth at 10 uM after 48 hrs by sulforhodamine B assay relative to control
[27] = test system: MDA-MB-435; test: Anticancer activity against human MDA-MB-435 cells assessed cell growth at 10 uM after 48 hrs by sulforhodamine B assay relative to control
[28] = test system: NCI-H23; test: Anticancer activity against human NCI-H23 cells assessed cell growth at 10 uM after 48 hrs by sulforhodamine B assay relative to control
[29] = test system: BT-549; test: Anticancer activity against human BT549 cells assessed cell growth at 10 uM after 48 hrs by sulforhodamine B assay relative to control
[30] = test system: PC-3; test: Anticancer activity against human PC3 cells assessed cell growth at 10 uM after 48 hrs by sulforhodamine B assay relative to control
[31] = test system: SF-295; test: Anticancer activity against human SF295 cells assessed cell growth at 10 uM after 48 hrs by sulforhodamine B assay relative to control
[32] = test system: HCT-15; test: Anticancer activity against human HCT15 cells assessed cell growth at 10 uM after 48 hrs by sulforhodamine B assay relative to control
[33] = test system: SNB-75; test: Anticancer activity against human SNB75 cells assessed cell growth at 10 uM after 48 hrs by sulforhodamine B assay relative to control
[34] = test system: NCI-H322M; test: Anticancer activity against human NCI-H322M cells assessed cell growth at 10 uM after 48 hrs by sulforhodamine B assay relative to control
[35] = test system: U-251; test: Anticancer activity against human U251 cells assessed cell growth at 10 uM after 48 hrs by sulforhodamine B assay relative to control
[36] = test system: HL-60(TB); test: Anticancer activity against human HL-60(TB) cells assessed cell growth at 10 uM after 48 hrs by sulforhodamine B assay relative to control
[37] = test system: Malme-3M; test: Anticancer activity against human MALME-3M cells assessed cell growth at 10 uM after 48 hrs by sulforhodamine B assay relative to control
[38] = test system: SN12C; test: Anticancer activity against human SN12C cells assessed cell growth at 10 uM after 48 hrs by sulforhodamine B assay relative to control
[39] = test system: MDA-MB-468; test: Anticancer activity against human MDA-MB-468 cells assessed cell growth at 10 uM after 48 hrs by sulforhodamine B assay relative to control
[40] = test system: SK-OV-3; test: Anticancer activity against human SKOV3 cells assessed cell growth at 10 uM after 48 hrs by sulforhodamine B assay relative to control
[41] = test system: UO-31; test: Anticancer activity against human UO31 cells assessed cell growth at 10 uM after 48 hrs by sulforhodamine B assay relative to control
[42] = test system: HCT-116; test: Anticancer activity against human HCT116 cells assessed cell growth at 10 uM after 48 hrs by sulforhodamine B assay relative to control
[43] = test system: SK-MEL-28; test: Anticancer activity against human SK-MEL-28 cells assessed cell growth at 10 uM after 48 hrs by sulforhodamine B assay relative to control

## CCCCCCCCCCCCCCCCCC[n+]1ccn(C)c1.FC(F)(F)C(F)(F)[P-](F)(F)(F)(C(F)(F)C(F)(F)F)C(F)(F)C(F)(F)F
[1]
  Activity: -63.43%
[2]
  Activity: -56.76%
[3]
  Activity: -80.42%
[4]
  Activity: 7.06%
[5]
  Activity: -60.38%
[6]
  Activity: 32.25%
[7]
  Activity: -25.6%
[8]
  Activity: -53.5%
[9]
  Activity: -34.47%
[10]
  Activity: -25.56%
[11]
  Activity: -54.7%
[12]
  Activity: -73.64%
[13]
  Activity: 35.34%
[14]
  Activity: -56.04%
[15]
  Activity: 2.61%
[16]
  Activity: -53.73%
[17]
  Activity: -18.12%
[18]
  Activity: -31.79%
[19]
  Activity: -47.08%
[20]
  Activity: -39.5%
[21]
  Activity: 49.96%
[22]
  Activity: -30.94%
[23]
  Activity: -79.75%
[24]
  Activity: -53.6%
[25]
  Activity: -44.46%
[26]
  Activity: -71.63%
[27]
  Activity: -52.89%
[28]
  Activity: -62.26%
[29]
  Activity: -56.11%
[30]
  Activity: -57.75%
[31]
  Activity: -26.82%
[32]
  Activity: -23.91%
[33]
  Activity: -47.53%
[34]
  Activity: 5.98%
[35]
  Activity: -39.24%
[36]
  Activity: 15.34%
[37]
  Activity: -51.72%
[38]
  Activity: -75.69%
[39]
  Activity: 5.93%
[40]
  Activity: 10.45%
[41]
  Activity: -55.23%
[42]
  Activity: -57.3%
[43]
  Activity: -45.82%

## CCCCCCCCCCCCCCCCCC[n+]1ccn(C)c1.O=S(=O)([N-]S(=O)(=O)C(F)(F)F)C(F)(F)F
[1]
  Activity: -74.3%
[2]
  Activity: -59.68%
[3]
  Activity: -82.94%
[4]
  Activity: -8.63%
[5]
  Activity: -72.43%
[6]
  Activity: 16.98%
[7]
  Activity: -38.1%
[8]
  Activity: -47.9%
[9]
  Activity: -68%
[10]
  Activity: -52.24%
[11]
  Activity: -51.69%
[12]
  Activity: -80.16%
[13]
  Activity: 67.84%
[14]
  Activity: -61.9%
[15]
  Activity: 6.12%
[16]
  Activity: -51.32%
[17]
  Activity: -13.29%
[18]
  Activity: -37.35%
[19]
  Activity: -45.26%
[20]
  Activity: -66.2%
[21]
  Activity: 75.58%
[22]
  Activity: -43.09%
[23]
  Activity: -74.14%
[24]
  Activity: -43.53%
[25]
  Activity: -62.07%
[26]
  Activity: -78.63%
[27]
  Activity: -70.83%
[28]
  Activity: -44.29%
[29]
  Activity: -54.97%
[30]
  Activity: -62.3%
[31]
  Activity: -21.51%
[32]
  Activity: -54.83%
[33]
  Activity: -55.13%
[34]
  Activity: 6.16%
[35]
  Activity: -63.9%
[36]
  Activity: 2.22%
[37]
  Activity: -49.87%
[38]
  Activity: -68.39%
[39]
  Activity: -20.4%
[40]
  Activity: -9.16%
[41]
  Activity: -66.09%
[42]
  Activity: -51.46%
[43]
  Activity: -52.79%
